Data: article PMC4263767, “IL-28B is a Key Regulator of B- and T-Cell Vaccine Responses against Influenza” (PLoS Pathogens, 2014)
“Also recorded” adds a separate entry of the source. Like-named read-outs stand apart in the source and are kept apart here.

Legend:
transplant recipients = settings: MMF; ref [28], [48]; cited from earlier work
[1] = test system: PBMCs from healthy volunteers; assay: IL-28A, IL-28B and IL-29 mRNA expression in H1N1-stimulated PBMCs; format: cell-based, human; settings: MMF various concentrations 2 h before 6 h H1N1; n = 25
Method: (A) PBMCs from healthy volunteers were stimulated for six-hours with H1N1. mRNA-expression of IL-28A, IL-28B and IL-29 were normalized to non-stimulated controls and HPRT expression. Major (rs8099917 TT, n = 28) compared to minor (rs8099917 non-TT, n = 21) allele genotype. MWU-test determined statistically significant differences between groups. Bars show median values with interquartile range. (B) PBMCs from healthy volunteers (n = 25) were pre-treated with mycophenolate mofetil for 2 h prior to stimulated for six-hours with H1N1. mRNA-expression of IL-28A, IL-28B and IL-29 and statistical analysis were performed using the Kruskal Wallis (KW) test.
IL-28B primers and probe were designed based on Homo sapiens IL-28B mRNA-sequence (NM_172139.2) using Primer3 Input (version 0.4.0) (http://frodo.wi.mit.edu/). The forward primer (IL-28BF1: […]) spans the exon/exon junction of exons 1 and 2 of IL-28B. The IL-28B-specific probe (IL-28B probe: […] ) is located in the second exon and the reverse primer (IL-28BR1: […]) is in the third exon of the IL-28B gene. […]
The specificity of the three sets of qRT PCR assays was tested against Invivogen expression plasmids containing complete IL-28A (puno1-hIL-28A), IL-28B (puno1-hIL-28B) and IL-29 (punoIL-29) sequences. The specificity of all qRT PCR assays has been previously assessed. […]

H1N1 stimulated PBMCs = format: cell-based, human; settings: control peptides added twice during expansion phase
[2] = test system: IL28RA (IL-28 receptor alpha subunit); assay: ELISA competition assay, binding of IL-28B to IL28RA; settings: for inhibition of IFN-λ / IL-28B binding to IL28RA (in words): peptides 10 µM, or increasing 10 nM to 100 µM; for binding affinity to IL28RA (in words): discussion
Excerpt: Recombinant IL28RA was coated on an ELISA plate and pre-treated with increasing concentrations of peptides. […] Anti-his secondary antibody was used to determine the relative amount of bound IFN-λ to the IL28RA. These dose-response curves allowed us to determine the effectiveness of binding inhibition of each peptide.
(C) Inhibitory activity of peptides against IL-28B to IL28RA. […] Bars indicate median values, whiskers inter-quartile ranges. The graph represents three independently repeated experiments. (D) Inhibitory activity of scrambled peptides against IL-28B to IL28RA. ELISA was used to measure the binding of a fixed concentration of IL-28B (100 ng/mL) to the IL28RA challenged by a fixed concentration of control peptides (10 µM; s, scramble). The median value representing three independently repeated experiments is shown. Whiskers indicate the interquartile range.

[3] = test system: PBMCs from healthy volunteers; format: cell-based, human; settings: peptides 2 h prior to 5-day H1N1 stimulation, compared to peptide controls
[4] = test system: T-cells, monocytes and macrophages; settings: ref [18]–[21]; cited from earlier work
Excerpt: The IFN-λ family (Interleukin-28A, -28B, -29, and IFN-λ4) is a recently described class of IFNs with antiviral properties similar to IFN-α and -β [14]–[17]. IFN-λ is known to induce phosphorylation of STAT-1 and -2 via binding to its receptor, which is a heterodimer consisting of the IL-28 receptor alpha subunit (IL28RA) and IL-10 receptor beta subunit (IL10RB). […] Furthermore, IFN-λs induced the development of T-regu ... || IL-28B (IFN-λ3) belongs to the family of IFN-lambdas and shares antiviral properties similar to IFN-α via induction of interferon stimulated genes (ISGs) such as MX1 or OAS1 [41]. […] IL-12 is a key cytokine for the induction of Th1 cells and cytotoxic lymphocytes, [43]. SNPs in the IL-28B gene (minor-allele genotypes) have been associated with reduced IL-28B expression, [29]–[33], which could impact adaptive immune functions during vaccination. One limitation of our study is that we d ...

IL28RA = settings: reference not given; cited from earlier work
Excerpt: An important strength of our study is the use of a clinical cohort including immunosuppressed transplant recipients to confirm our findings in the clinical setting. We then sought to define additional observations to support our clinical findings making our study unique. One limitation of our study is the heterogeneity of the transplant cohort due to a variety of underlying conditions leading to organ failure. […] In addition, we have shown that mycophenolate mofetil (MMF) and the IL-28B major-allele ...

[5] = competition ELISA, IL-28B 100 ng/mL

## COc1c(C)c2c(c(O)c1C/C=C(\C)CCC(=O)OCCN1CCOCC1)C(=O)OC2 [MMF, mycophenolate mofetil]
Transplant recipients
  effect on influenza vaccine responses: significantly suppress influenza vaccine responses
[1]
  IFN-λ (IL-28A, IL-28B, IL-29) mRNA expression profiles: no difference in IFN-λ expression profiles; also recorded: not influenced

## penetratin
H1N1 stimulated PBMCs
  unspecific stimulatory effect on H1N1 stimulated IgG production: No unspecific effect could be observed

## ASVTFNLFRLLTRDLKY [peptide 6]
[2]; [5]
  inhibition of IFN-λ / IL-28B binding to IL28RA (in words): strong potential to inhibit binding of IFN-λs
[2]
  binding affinity to IL28RA (in words): high binding affinities to IL28RA
[3]
  H1N1-induced IgG production (in words): ability to significantly increase in vitro H1N1-induced IgG production

## ELASFKKARDALEESLKL [peptide 1]
[2]; competition ELISA, IL-28B 100 ng/mL, peptide 10 µM (S5C/S5D Figure), median of three independent experiments
  reduction of the binding of IL-28B to IL28RA: 71%
[2]; [5]
  inhibition of IFN-λ / IL-28B binding to IL28RA (in words): potent specific dose dependent inhibitory blocking effect
[2]; competition ELISA, IL-28B 100 ng/mL, listed as peptides 1
  inhibition of IFN-λ / IL-28B binding to IL28RA (in words): strong potential to inhibit binding of IFN-λs
[2]
  binding affinity to IL28RA (in words): high binding affinities to IL28RA
[3]; listed as Peptides 1
  H1N1-induced IgG production (in words): strong trend for higher H1N1-induced IgG secretion
[3]; listed as peptides 1
  H1N1-induced IgG production (in words): ability to significantly increase in vitro H1N1-induced IgG production

## IL-29: one of the IFN-λ family members
[4]
  Th1 and Th2 cytokine producing T-cells: increase Th1 and suppress Th2 cytokine producing T-cells
IL28RA
  binding affinity towards IL28RA compared to IL-28B: significantly greater binding affinity
